Measurements reported in US11484543B2, “Compositions and methods for diagnosing and treating diseases and disorders associated with mutant KCNJ5” (The Rockefeller University, priority 2017, dated 2022).
Where two headings read alike, the source gives them in different places.

Tests used:
[1] = target: T1, KCNJ3/KCNJ5^G151R (Homo sapiens, UniProt P48544, G151R); experiment: Perforated whole-cell patch clamp, KCNJ3/KCNJ5^G151R heterotetramers in HEK293T cells; format: cell-based
T1 construct: GFP; expressed in transfected cells; host or cells: HEK293T (American Type Culture Collection), transient co-transfection
T1 sequence (P48544 1-419 G151R): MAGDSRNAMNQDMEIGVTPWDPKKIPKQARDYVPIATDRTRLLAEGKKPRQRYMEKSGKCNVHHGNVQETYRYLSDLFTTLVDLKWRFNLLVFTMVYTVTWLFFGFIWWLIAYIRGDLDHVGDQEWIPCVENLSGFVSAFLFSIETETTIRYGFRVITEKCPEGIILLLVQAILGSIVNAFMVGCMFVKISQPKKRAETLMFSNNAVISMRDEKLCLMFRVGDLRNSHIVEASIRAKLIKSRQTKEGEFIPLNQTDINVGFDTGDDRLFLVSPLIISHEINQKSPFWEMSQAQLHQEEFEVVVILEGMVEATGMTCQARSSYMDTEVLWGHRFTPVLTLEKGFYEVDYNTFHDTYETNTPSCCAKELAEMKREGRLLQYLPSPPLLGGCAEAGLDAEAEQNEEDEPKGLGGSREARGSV
T1 sequence (P48549 1-501 partner): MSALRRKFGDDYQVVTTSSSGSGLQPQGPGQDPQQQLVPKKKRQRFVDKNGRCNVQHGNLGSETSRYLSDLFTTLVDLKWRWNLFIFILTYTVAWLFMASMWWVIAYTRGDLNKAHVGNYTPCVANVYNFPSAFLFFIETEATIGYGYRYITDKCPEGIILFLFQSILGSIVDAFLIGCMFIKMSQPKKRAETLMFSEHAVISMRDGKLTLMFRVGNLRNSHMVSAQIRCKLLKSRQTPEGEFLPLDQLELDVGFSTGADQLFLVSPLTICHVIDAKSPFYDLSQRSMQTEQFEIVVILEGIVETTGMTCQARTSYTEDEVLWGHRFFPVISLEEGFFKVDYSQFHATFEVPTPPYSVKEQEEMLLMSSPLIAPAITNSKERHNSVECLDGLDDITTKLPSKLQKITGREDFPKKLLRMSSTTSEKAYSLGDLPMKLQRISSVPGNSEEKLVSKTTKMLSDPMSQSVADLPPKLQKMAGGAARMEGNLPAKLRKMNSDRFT
Experimental: HEK293T cells (American Type Culture Collection) were used for transient expression of GFP-tagged KCNJ5 or KCNJ3. The cells were grown in Dulbecco's modified Eagle medium (DMEM; Invitrogen) supplemented with 10% FBS (Invitrogen) in 5% CO2 and 95% air at 37° C. Cells were grown to 50-70% confluence for transfection, and the corresponding cDNAs (Choi et al., 2011, Science 331:768-772) were simultaneously applied to the cells using TurboFect transfection reagent according to the manufacturer's protocol (Fermentas). […]
(§1) Within 24 hr after transfection, the cells were treated with trypsin-containing medium (TrypLE Express) (Gibco) for 10 minutes to detach the cells. […] Fluorescence signal (an indication of positive transfection) was detected with an intensified video imaging system including a SIT 68 camera (Long Island Industries). […] After forming a high resistance seal (>2 GΩ), the membrane capacitance was monitored until the whole-cell patch configuration was formed. The cell membrane capacitance was measured and compensated. The K/cation currents were measured from −80 mV to 20 mV with 20 mV steps by an Axon 200A patch-clamp amplifier. The currents were low-pass filtered at 1 KHz and digitized by an Axon interface (Digidata 1200) and were analyzed using the pClamp software system 9 (Axon). […]

[2] = target: T2, KCNJ5^G151R homotetramers (Homo sapiens, UniProt P48544, G151R); experiment: Perforated whole-cell patch clamp, KCNJ5^G151R homotetramers in HEK293T cells; format: cell-based; conditions: HEK-293T, at −80 mV
T2 construct: GFP; expressed in transfected cells; host or cells: HEK293T (American Type Culture Collection), transient
T2 sequence (P48544 1-419 G151R): T1 sequence (P48544 1-419 G151R)
Experimental: Cation currents were measured with the perforated whole cell recording technique (140 mM NaCl/5 mM KCl bath solution, 140 mM KCl pipette solution for KCNJ5^G151R; 140 mM NaCl/5 mM KCl bath solution, 140 mM KCl, 1.8 mM MgCl2 pipette solution for KCNJ5^L168R; 140 mM KCl bath and pipette solution for KCNJ5^WT). […] Errors represent standard error of the mean, N=3 to 6. […] In contrast, WT currents are not inhibited.
HEK293T cells (American Type Culture Collection) were used for transient expression of GFP-tagged KCNJ5 or KCNJ3. The cells were grown in Dulbecco's modified Eagle medium (DMEM; Invitrogen) supplemented with 10% FBS (Invitrogen) in 5% CO2 and 95% air at 37° C. […]
as §1, with “amplifier.” for “amplifier. The currents were low-pass filtered at 1 KHz and digitized by an Axon interface (Digidata 1200) and were analyzed using the pClamp software system 9 (Axon).”

[3] = single dose of 300 mg, healthy adults, cited from earlier work

Compound	inhibition of mutant KCNJ5 in electrophysiological studies ([1]; 10 μM, heterotetramers of KCNJ3 and mutant or WT KCNJ5 (FIG. 13))	inhibition of KCNJ3/KCNJ5^G151R currents ([1]; 20 μM, 10 minutes after addition)	inhibition at 10 µM ([2]; 10 μM) [%]	inhibition at 20 µM ([2]; 20 μM) [%]	maximum serum concentrations [3] [mg/L]	maximum serum concentrations ([3]; conversion of 16.4 mg/L) [µM]
N-demethyl-N-isobutyl-8,9-anhydroerythromycin A 6,9-hemiacetal [PLUX37]	specific inhibition of mutant KCNJ5					
CC[C@H]1OC(=O)[C@H](C)[C@@H](O[C@H]2C[C@@](C)(OC)[C@@H](O)[C@H](C)O2)[C@H](C)[C@@H](O[C@@H]2O[C@H](C)C[C@H](N(C)C)[C@H]2O)[C@](C)(O)C[C@@H](C)/C(=N\OCOCCOC)[C@H](C)[C@@H](O)[C@]1(C)O [Roxithromycin, roxithromycin]		almost complete inhibition	53	80	16.4	~17
